Data on one molecule can be found in patent US9821024B2, “Immunomodulatory compositions” (Sigmoid Pharma Limited, priority 2010, dated 2017).

For the assay, the system named is NFκB. As to conditions: HeLa cells; FIG. 29.

Consider `NNc1nncc2ccccc12` [Hydralazine], for which the “Concentration of maximal NFκB activation” value stood at 10 µg/mL.
